Results published in PubChem BioAssay AID2060485 (Molecular Pharmacology Branch, DTP, NCI, 2025).
pIC50: −log10 of the molar value. Several values for one entry are separate records, joined by “and”; a condition that tells them apart may be missing. Identical values can stand only once.

Test system: A375 multi-cell spheroids with HUVEC/MSC, viability
Experiment: Anticancer human tumor A375 cell line growth inhibition [GQUAD];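 note: spheroids exposed to compounds for seven days before readout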
Settings: for viability, T/C: stronger effect = lower value
Source text: DNA G-quadruplex Stabilizer Agents in Combinations in Complex Spheroids
A high-throughput screen of multi-cell type tumor spheroids was designed to identify active combinations of DNA G-quadruplex stabilizer agents and targeted small molecules. Complex spheroids include a stromal component modeled by human endothelial cells (HUVEC) and fibroblasts modeled by human mesenchymal stem cells (MSCs). The concentration ranges selected for each drug and investigational agent were based upon clinically achievable concentrations if the clinical Cmax of the agent was known.
Compounds. The drugs and investigational agents: pidnarulex (CX-5461; NSC782164), APTO-253 (NSC789042), BRACO-19 (NSC847499), peposertib (NSC802822), ceralasertib (NSC780249), elimusertib (NSC800525), camonsertib (NSC841442), AZD-1390 (NSC803789), olaparib (NSC753686), talazoparib (NSC767125), ART-558 (NSC835418), sotorasib (NSC818433), MRTX-1133 (NSC836407), SN-38 (NSC673596), topotecan (NSC609699), etoposide (NSC141540), doxorubicin (NSC123127), gemcitabine (NSC613327), 5-fluorouracil (NSC19893), paclitaxel (NSC125973), vemurafenib (NSC761431), panobinostat (NSC761190), R-306465 (JNJ-16241199; NSC773264), adavosertib (NSC754352), TP-3654 (NSC805149), carboplatin (NSC241240), KSQ-4279 (NSC840948), and staurosporine (NSC755774) were obtained from the National Cancer Institute (NCI) Developmental Therapeutics Program Chemical Repository (34). The FDA-approved anticancer drug set is available from the NCI Developmental Therapeutics Program. […] The stock solutions were prepared in dimethyl sulfoxide (DMSO, Sigma-Aldrich, St. Louis, MO, cat. D2650) at 800-fold the tested concentration and stored at -70 degrees C prior to their use. All drugs and investigational agents were tested over a range starting from a high concentration at or near the clinical Cmax and decreasing in half-log increments. If the clinical Cmax for an agent had not been determined, the highest concentration tested was 10 microM.
2.3 Cell Culture. All cells were maintained in an incubator at 37 degrees C and 5% CO2 with 95% humidity. The PDC lines were cultured according to standard operating procedures established by the NCI PDMR. All PDCs were thawed and cultured in Matrigel-coated flasks prepared with a working solution of 1X Ham's F-12 nutrient mix, without supplementation (Invitrogen, cat. 11765054), 100 U/mL penicillin-streptomycin (Invitrogen, cat. 15140122), and 2.5% Matrigel (Corning Inc., cat. 354248) for the first three passages. The 857933-349-R-J2-PDC line was cultured in 6C/Colon 1B media, which includes advanced DMEM/F-12 (Thermo Fisher Scientific, cat. 12634028), 10 mM HEPES (Thermo Fisher Scientific, cat. 15630080), 1X GlutaMAX supplement (Thermo Fisher Scientific, cat. 35050061), 0.1 mg/mL primocin (InvivoGen, cat. ant-pm-2), 10% defined fetal bovine serum, heat inactivated (HyClone Laboratories Inc., cat. SH30070.03HI), 50% L-WRN conditioned media (ATCC, cat. CRL-3276), 1.25 mM N-Acetyl-L-cysteine (Sigma-Aldrich, cat. A9165), 10 mM nicotinamide (Sigma-Aldrich, cat. N0636), 1X B-27 supplement (Thermo Fisher Scientific, cat. 17504044), 1X N-2 supplement (Thermo Fisher Scientific, cat. 17502048), 10 microM Y-27632 dihydrochloride (Tocris Bioscience, cat. 1254), and 50 ng/mL human EGF recombinant protein (Thermo Fisher Scientific, cat. PHG0311). The 485176-168-R4-J1-PDC line was cultured in Panc media, which includes all 6C/Colon 1B media components plus 100 ng/mL human FGF-10 (Thermo Fisher Scientific, cat. 100-26), 500 nM SB-431542 (Selleckchem, cat. S1067), and gastrin (Tocris, cat. 3006).
[…]

[1] = compound alone, run of 03/18/2024

| SMILES | viability, T/C (compound 0.0316 µM) | viability, T/C (compound 0.1 µM) | viability, T/C (compound 0.316 µM) | viability, T/C (compound 1 µM) | viability, T/C (compound 3.16 µM) | viability, T/C (compound 10 µM) | pIC50 (curve of compound) | pIC50 [1] | pIC50 (compound alone, run of 03/26/2024) | viability, T/C (compound 0.000999 µM) | viability, T/C (compound 0.00316 µM) | viability, T/C (compound 0.00999 µM) | viability, T/C (compound 0.0999 µM) | IC50 [1] |
| --- | --- | --- | --- | --- | --- | --- | --- | --- | --- | --- | --- | --- | --- | --- |
| COc1cc(C2c3cc4c(cc3C(OC3OC5COC(C)OC5C(O)C3O)C3COC(=O)C23)OCO4)cc(OC)c1O (stereo unspecified) | 93.3% and 94.2% and 109% | 105% (2×) and 118% | 93.9% and 92.3% and 76.3% | 65.6% and 63.6% and 58.4% | 34% and 34.8% and 33.6% | 24.1% and 21.5% and 21.2% | 5.76 and 5.77 and 5.86 |  |  |  |  |  |  |  |
| COc1ccc([C@@H](O)c2cc(-c3ncnc4cc(N5CCOCC5)ccc34)c(F)cc2Cl)nn1 | 97.1% and 112% | 107% and 117% | 102% and 98.3% | 101% and 103% | 100% and 91% | 83% and 67.6% | < 5.00 |  |  |  |  |  |  |  |
| Cc1[nH]c2ccc(F)cc2c1-c1nc2c3cccnc3c3ncccc3c2[nH]1 | 99.2% [middle of 12 runs] | 99.6% [middle of 12 runs] | 103% [middle of 12 runs] | 102% [middle of 12 runs] |  | 100% [middle of 12 runs] |  | < 5.00 | < 5.00 |  |  |  |  |  |
| Cc1[nH]c2ccccc2c1CCNCc1ccc(/C=C/C(=O)NO)cc1 | 114% (2×) and 115% |  | 7.14% and 9% and 10.9% |  |  |  | 7.00 and 6.92 and 6.73 |  |  | 103% and 99.2% and 97.9% | 98.1% and 105% and 101% | 110% and 118% and 113% | 49.5% and 57.8% and 96% |  |
| Cc1cccc(N(C)C(=O)C2C(O)CCN2c2nc(C)cc(C(F)(F)F)c2C#N)c1 (stereo unspecified) | 110% and 103% and 101% | 94.9% and 106% and 101% | 97.7% and 98.8% and 106% | 97.1% and 104% and 90.2% | 96.7% and 109% and 108% | 97.8% and 103% and 95% | < 5.00 |  |  |  |  |  |  |  |
| Cc1cnc(CNC(=O)c2c(=O)c3ccc(N4CCCN(C)CC4)nc3n3c2sc2ccccc23)cn1 | 101% [middle of 11 runs] | 82.4% [middle of 11 runs] | 57.1% [middle of 11 runs] | 42.3% [middle of 11 runs] | 37.6% [middle of 11 runs] | 31.1% [middle of 11 runs] |  |  |  |  |  |  |  | 582 nM [middle of 11 runs] |
| Cn1ncnc1[C@H]1c2n[nH]c(=O)c3cc(F)cc(c23)N[C@@H]1c1ccc(F)cc1 | 108% and 106% and 99.2% |  | 94.1% and 91.5% and 92.8% |  |  |  | < 6.50 |  |  | 93.9% and 104% and 90.5% | 98% and 101% and 97% | 104% and 103% and 98.8% | 112% and 104% and 98.9% |  |
| O=C(c1cc(Cc2n[nH]c(=O)c3ccccc23)ccc1F)N1CCN(C(=O)C2CC2)CC1 | 93.2% and 101% and 92.1% | 92% and 98.2% and 93.7% | 98.1% and 94.9% and 107% | 101% (2×) and 99.2% | 101% and 105% and 95.4% | 91% and 84.7% and 87.8% | < 5.00 |  |  |  |  |  |  |  |
